Results published in PMC7287880, “Structural Basis for Broad Substrate Selectivity of Alcohol Dehydrogenase YjgB from Escherichia coli” (Molecules, 2020).

Target: T1, EcYjgB (YjgB) (Escherichia coli, UniProt P27250)
T1 construct: gene ahr; full-length, C-terminal 6xHis tag (pET30a), recombinant in E. coli BL21(DE3), purified by Ni-NTA and size exclusion; Zn-containing dimer
T1 sequence (P27250 1-339): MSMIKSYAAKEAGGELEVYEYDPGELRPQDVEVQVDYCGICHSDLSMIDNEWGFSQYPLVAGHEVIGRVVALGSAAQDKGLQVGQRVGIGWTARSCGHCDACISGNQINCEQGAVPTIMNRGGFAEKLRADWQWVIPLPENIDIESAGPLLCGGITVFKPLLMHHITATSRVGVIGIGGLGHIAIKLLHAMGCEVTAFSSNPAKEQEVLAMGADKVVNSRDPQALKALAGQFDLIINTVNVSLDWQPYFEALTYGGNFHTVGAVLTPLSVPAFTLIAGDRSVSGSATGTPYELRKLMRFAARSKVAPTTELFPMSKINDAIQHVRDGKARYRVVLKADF
Experiment: X-ray crystal structure of soaked crystal, […] A
Type: binding
Settings: apo crystals soaked with 5 mM NADP for 30 min at 7 C; Zn-bound; PEG fragment in substrate pocket; Rossmann-fold cofactor site

NC(=O)c1ccc[n+]([C@@H]2O[C@H](COP(=O)(O)OP(=O)(O)OC[C@H]3O[C@@H](n4cnc5c(N)ncnc54)[C@H](OP(=O)(O)O)[C@@H]3O)[C@@H](O)[C@H]2O)c1 [NADP] was tested, and the “X-ray crystal structure of soaked crystal, 2.00 A” value was “The electron density of NADP is clearly shown in the NADP(H) binding site”.
